Laboratory results published in patent US8916149B2, “Preventing and treating sepsis” (University of Rochester, priority 2008, dated 2014).
Blank lines part the entries; values can stand above or below the molecule they belong to.

Tests used:
human neutrophils [1] = experiment: Random migration of neutrophils on FN-coated cover glass (live-cell imaging); format: cell-based; conditions: for reversal of the inhibitory effect of rhAPC on neutrophil migration: agonists of PAR-1 and S1P1; for random migration of neutrophils on FN induced by fMLP: 10 μg/ml protein
Procedure: Delta T dishes were coated with human FN (50 μg/ml, BD Biosciences, San Jose, Calif.) for overnight at 4° C. and then for 4 h at room temperature. Plates were then rinsed with L-15 media. […] The cells were then added to FN-coated dishes in 1.5 ml of L-15 with 2 mg/ml of glucose. For neutrophil live cell staining, 2 μM Green Cell Tracker CMFDA (5-chloromethylfluorescein diacetate; Molecular Probes, Carlsbad, Calif.) was used. Temperature was maintained at 37° C. throughout the experiment using a FCS2 live-cell imaging chamber (Bioptechs, Butler, Pa.). Images were acquired for 30 to 60 minutes under a 10× objective lens using a Nikon TE-2000U inverted microscope. Phase contrast images were acquired every 5 seconds and fluorescence images every 30 seconds. Cell paths were traced using MetaVue™ imaging software (Molecular Devices Corporation, Downingtown, Pa.).
Random migration was investigated by adding fMLP or IL-8 to media at a final concentration of 10^−8M and analyzed by manually tracing the outline of each cell in selected frames (i.e., at 50 second intervals). The x and y coordinates of each cell were measured using ImageJ software and were corrected so that the starting position was x=0 and y=0.
The time-lapsed images of migrating neutrophils were taken under phase contrast microscopy. Each image was thresholded and binarized based on brightness to define the centroids of the neutrophils. The closest centroids between consecutive images were linked as a trajectory under the assumption that these centroids were made by the same neutrophil. The maximum distance between the closest centroids was also defined to preclude the artifacts due to cells moving into and out of the field of view.

β3 integrins = biological target: T1, β3 integrins (Homo sapiens, UniProt P05106); conditions: cited from earlier work
T1 sequence (P05106 27-788): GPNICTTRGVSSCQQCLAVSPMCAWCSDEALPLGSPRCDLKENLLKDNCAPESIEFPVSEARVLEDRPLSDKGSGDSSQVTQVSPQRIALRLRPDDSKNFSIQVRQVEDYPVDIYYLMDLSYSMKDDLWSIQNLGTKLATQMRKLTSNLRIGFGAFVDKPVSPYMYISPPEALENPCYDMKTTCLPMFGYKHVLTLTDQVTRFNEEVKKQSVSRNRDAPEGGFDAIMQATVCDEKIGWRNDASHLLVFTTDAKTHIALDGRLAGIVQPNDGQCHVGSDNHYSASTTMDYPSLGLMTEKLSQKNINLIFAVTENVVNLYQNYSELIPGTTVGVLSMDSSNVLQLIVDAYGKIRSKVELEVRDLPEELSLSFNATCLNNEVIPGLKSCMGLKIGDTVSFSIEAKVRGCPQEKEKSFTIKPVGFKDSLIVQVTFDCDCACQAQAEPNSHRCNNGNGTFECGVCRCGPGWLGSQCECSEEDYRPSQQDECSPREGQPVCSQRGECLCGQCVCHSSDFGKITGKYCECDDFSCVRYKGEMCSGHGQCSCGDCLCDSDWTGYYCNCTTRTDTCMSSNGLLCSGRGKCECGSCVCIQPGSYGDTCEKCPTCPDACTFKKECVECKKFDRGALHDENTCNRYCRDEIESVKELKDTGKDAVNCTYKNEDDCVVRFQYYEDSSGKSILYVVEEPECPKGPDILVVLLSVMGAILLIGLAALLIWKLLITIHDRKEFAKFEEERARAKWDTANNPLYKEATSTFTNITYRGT

septic mice = conditions: 'mid-grade' sepsis (CLP), 200 μg i.v. 12 hours before and after CLP
Procedure: (§1) 200 μg of the RGD peptide or PBS was given 12 hours before and after CLP via i.v. injection (n=20 per group). […] 200 μg of the RGD peptide or PBS was given via i.v. injection before receiving […] of LPS (i.p.) (n=10 per group). The statistical significance of mortality was determined by the Kaplan-Meyer log-rank test.
CLP was used to induce acute septic peritonitis as described (Rhee et al., J Surg Res 115:74 (2003)). Briefly, mice (C57BL/6, 6-8 weeks) were anesthetized using inhaled Isoflurane, a midline incision (approximately 1 cm) was made below the diaphragm, the cecum was […], ligated approximately […] distal and then punctured through and through with a 22-gauge needle. Cecum was gently squeezed to excise its contents. Sham animals underwent the same procedure with no ligation or puncture. The abdominal incision was then closed in layers with Ethilon 6.0 suture. Mice were resuscitated with 1.0 ml of Ringer's solution via subcutaneous injection. Animals recovered under a heat lamp for approximately 30 minutes and were allowed food and water ad lib.

[2] = system: mice challenged with an LD90 of LPS; conditions: LPS at LD90, single dose 200 μg i.v.; control 90%
Procedure: as §1
In order to examine whether the RGD peptide alters mortality in ‘high-grade’ sepsis, 90% mortality was induced by endotoxemia.

β1 integrins = β1 integrins (Homo sapiens, UniProt P05556); conditions: cited from earlier work
Sequence of β1 integrins (P05556 21-798): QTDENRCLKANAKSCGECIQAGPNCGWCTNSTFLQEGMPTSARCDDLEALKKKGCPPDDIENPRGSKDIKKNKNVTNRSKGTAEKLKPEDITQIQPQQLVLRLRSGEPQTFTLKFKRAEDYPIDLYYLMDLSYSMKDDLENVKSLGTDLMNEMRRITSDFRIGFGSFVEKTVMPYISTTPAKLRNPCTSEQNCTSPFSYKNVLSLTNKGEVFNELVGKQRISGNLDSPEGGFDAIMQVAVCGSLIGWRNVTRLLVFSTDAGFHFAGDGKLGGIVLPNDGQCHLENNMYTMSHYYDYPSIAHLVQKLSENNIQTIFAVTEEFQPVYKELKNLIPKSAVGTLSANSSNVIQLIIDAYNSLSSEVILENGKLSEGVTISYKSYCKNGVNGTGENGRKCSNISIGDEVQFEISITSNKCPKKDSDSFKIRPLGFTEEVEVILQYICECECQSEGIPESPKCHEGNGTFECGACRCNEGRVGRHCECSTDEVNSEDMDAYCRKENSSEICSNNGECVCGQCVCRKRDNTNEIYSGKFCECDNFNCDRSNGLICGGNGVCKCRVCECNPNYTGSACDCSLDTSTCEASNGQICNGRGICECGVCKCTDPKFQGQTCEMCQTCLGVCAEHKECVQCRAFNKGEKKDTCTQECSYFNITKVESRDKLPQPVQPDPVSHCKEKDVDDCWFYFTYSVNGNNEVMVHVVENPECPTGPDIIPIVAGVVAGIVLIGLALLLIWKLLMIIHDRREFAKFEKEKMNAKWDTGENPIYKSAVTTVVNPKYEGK

human neutrophils [3] = experiment: Neutrophil adhesion assay on immobilized fibronectin (FN); format: cell-based; conditions: 10 μg/ml protein
Procedure: The adhesion assay was carried out essentially as described (Vorup-Jensen et al., PNAS 102:1614 (2005)). Cover slips were coated with FN in coating buffer (150 mM NaCl/20 mM Tris.HCl, pH 9.0) for over night at 4° C. and for 4 hours at room temperature. Residual binding sites were blocked by incubation of the wells with 0.05% (wt/vol) polyvinylpyrrolidone in PBS for 30 minutes at room temperature. […] The cover slips were aspirated, and washed with L15 medium. […] Cells (250 μl) were then immediately added, and further incubated at 37° C. for 15 minutes. Unbound cells were then washed with warm L15 medium. The bound cells were then fixed with formaldehyde. For each experimental condition from three independent donors, five random phase-contrast images were obtained, and the number of cells in each well was scored from printed micrographs.

hEPCR-mCFP and β1-mYFP = biological target: T2, hEPCR-mCFP and β1-mYFP (Homo sapiens, UniProt P05556+Q9UNN8); experiment: Dynamic FRET (TIRF) between hEPCR-mCFP and β1-mYFP in HEK293 cells; format: cell-based
T2 construct: expressed in transfected cells; host or cells: HEK293
T2 sequence (Q9UNN8 18-238): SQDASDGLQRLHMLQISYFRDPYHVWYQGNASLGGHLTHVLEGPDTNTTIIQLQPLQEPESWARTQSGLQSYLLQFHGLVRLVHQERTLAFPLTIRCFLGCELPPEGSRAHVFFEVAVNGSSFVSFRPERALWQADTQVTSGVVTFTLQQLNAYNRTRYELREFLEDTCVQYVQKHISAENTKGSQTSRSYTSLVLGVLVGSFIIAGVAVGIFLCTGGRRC
T2 sequence (P05556 21-798): as the sequence (P05556 21-798) above
Procedure: Dynamic FRET imaging was carried out using a Nikon Eclipse TE2000-U microscope (Nikon, Melville, N.Y.) equipped with a Dual-View (Optical Insights, Tucson, Ariz.) and CFP/YFP dual-band filter set (Chroma, Rockingham, Vt.). TIRF imaging was performed with a white light TIRF aperture diaphragm and a 100×TIRF 1.49 NA oil immersion objective coupled to a QuantEM EMCCD (Roper Scientific, Tucson, Ariz.). The microscope was controlled by NIS element software (Nikon, Melville, N.Y.) and data analysis was performed with AutoDeblur (Autoquant Imaging, Troy, N.Y.) by the sensitized emission method (Gordon et al., Biophys. J. 74:2702 (1998)). 48 hours after co-transfection with hEPCR-mCFP and β1-mYFP DNA construct in Delta T dish (Fisher Scientific, Pittsburgh, Pa.), HEK293 cells were washed with PBS and then 1 ml L15 medium supplemented with 2 mg/ml D-glucose. Cells were equilibrated for about 10 minutes at 37° C. in a FCS2 live cell imaging chamber (Bioptechs, Butler, Pa.). […]
Therefore, it was tested whether the anti-EPCR antibody relieved the rhAPC-induced inhibition of neutrophil adhesion on FN. […] Since the ligand will only bind to cell surface receptors, optical measurements were confined to the plasma membrane using through the objective total internal reflection fluorescence (TIRF).

α3β1 = biological target: T3, α3β1 (Homo sapiens, UniProt P05556+P26006); experiment: Solid phase integrin ligand binding assay; conditions: 1 mM Mn2+, 1 mM Ca2+, 1 mM Mg2+
T3 construct: purchased US Biological, Swampscott, Mass
T3 sequence (P26006 33-872 limits assumed): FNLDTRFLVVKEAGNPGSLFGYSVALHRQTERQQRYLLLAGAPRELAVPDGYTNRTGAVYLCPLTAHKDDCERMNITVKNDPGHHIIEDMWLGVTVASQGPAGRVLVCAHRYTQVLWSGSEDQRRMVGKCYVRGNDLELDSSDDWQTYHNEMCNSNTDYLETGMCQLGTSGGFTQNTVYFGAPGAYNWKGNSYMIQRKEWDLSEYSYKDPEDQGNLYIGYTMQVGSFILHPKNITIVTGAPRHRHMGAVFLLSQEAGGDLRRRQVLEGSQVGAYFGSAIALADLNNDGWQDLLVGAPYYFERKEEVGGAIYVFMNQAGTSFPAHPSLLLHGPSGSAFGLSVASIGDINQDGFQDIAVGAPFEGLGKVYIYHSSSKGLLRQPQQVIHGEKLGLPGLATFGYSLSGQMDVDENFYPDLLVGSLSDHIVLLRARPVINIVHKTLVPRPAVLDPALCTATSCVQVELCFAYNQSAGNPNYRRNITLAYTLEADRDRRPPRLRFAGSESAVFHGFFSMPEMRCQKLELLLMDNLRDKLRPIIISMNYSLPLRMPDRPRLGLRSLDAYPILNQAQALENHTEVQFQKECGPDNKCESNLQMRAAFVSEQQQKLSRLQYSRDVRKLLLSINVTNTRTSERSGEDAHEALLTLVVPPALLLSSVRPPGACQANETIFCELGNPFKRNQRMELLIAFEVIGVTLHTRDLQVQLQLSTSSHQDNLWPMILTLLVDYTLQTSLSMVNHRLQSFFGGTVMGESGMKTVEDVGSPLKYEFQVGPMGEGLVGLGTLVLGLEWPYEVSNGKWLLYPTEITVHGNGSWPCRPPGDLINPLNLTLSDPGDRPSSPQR
T3 sequence (P26006 876-1051 partner limits assumed): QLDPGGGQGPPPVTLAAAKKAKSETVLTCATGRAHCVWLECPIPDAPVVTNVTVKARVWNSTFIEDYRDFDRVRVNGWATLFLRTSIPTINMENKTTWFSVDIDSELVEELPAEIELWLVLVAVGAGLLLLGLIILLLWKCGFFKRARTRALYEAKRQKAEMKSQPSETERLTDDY
T3 sequence (P05556 21-798): as the sequence (P05556 21-798) above
Procedure: (§2) The solid phase binding assay was performed using purified soluble human α3β1, α5β1, and αVβ3 (US Biological, Swampscott, Mass.). Two (2) μg/ml of soluble integrins were added to microtiter wells for capture with immobilized monoclonal antibody against β1 or β3 subunits (mAb TS2/6 for β1 and mAb BB10 (Chemicon, Temecula, Calif.) for β3 integrins). […] After washing, bound APC was chromogenically detected by peroxidase-streptavidin conjugate anti-PC (Diapharma, West Chester, Ohio) or chromogenic substrate S-2366 (Diapharma, West Chester, Ohio). To minimize dissociation, all wash buffers contained 1 mM Mn^2+, and <15 minutes elapsed between the end of binding and beginning of color development. Functional blocking antibodies for integrins were from Chemicon (Temecula, Calif.).
(§3) Among the neutrophil integrins that recognize the RGD motif, α3β1, α5β1, and αVβ3 are key in regulating neutrophil chemotaxis (Yauch et al., Mol. Biol. Cell 9:2751 (1998); Burns et al., J. Immunol. 166:4644 (2001); Sixt et al., J. Biol. Chem. 276:18878 (2001)). To test whether APC can bind directly to the integrins, an ELISA-like solid phase receptor-binding assay was performed (FIG. 2E). Soluble α3β1, α5β1, and αVβ3 were captured onto microtiter wells using mAbs specific for β1 or β3.

α5β1 = biological target: T4, α5β1 (Homo sapiens, UniProt P05556+P08648); experiment: Solid phase integrin ligand binding assay; conditions: 1 mM Mn2+, 1 mM Ca2+, 1 mM Mg2+
T4 construct: purchased US Biological, Swampscott, Mass
T4 sequence (P08648 42-894 limits assumed): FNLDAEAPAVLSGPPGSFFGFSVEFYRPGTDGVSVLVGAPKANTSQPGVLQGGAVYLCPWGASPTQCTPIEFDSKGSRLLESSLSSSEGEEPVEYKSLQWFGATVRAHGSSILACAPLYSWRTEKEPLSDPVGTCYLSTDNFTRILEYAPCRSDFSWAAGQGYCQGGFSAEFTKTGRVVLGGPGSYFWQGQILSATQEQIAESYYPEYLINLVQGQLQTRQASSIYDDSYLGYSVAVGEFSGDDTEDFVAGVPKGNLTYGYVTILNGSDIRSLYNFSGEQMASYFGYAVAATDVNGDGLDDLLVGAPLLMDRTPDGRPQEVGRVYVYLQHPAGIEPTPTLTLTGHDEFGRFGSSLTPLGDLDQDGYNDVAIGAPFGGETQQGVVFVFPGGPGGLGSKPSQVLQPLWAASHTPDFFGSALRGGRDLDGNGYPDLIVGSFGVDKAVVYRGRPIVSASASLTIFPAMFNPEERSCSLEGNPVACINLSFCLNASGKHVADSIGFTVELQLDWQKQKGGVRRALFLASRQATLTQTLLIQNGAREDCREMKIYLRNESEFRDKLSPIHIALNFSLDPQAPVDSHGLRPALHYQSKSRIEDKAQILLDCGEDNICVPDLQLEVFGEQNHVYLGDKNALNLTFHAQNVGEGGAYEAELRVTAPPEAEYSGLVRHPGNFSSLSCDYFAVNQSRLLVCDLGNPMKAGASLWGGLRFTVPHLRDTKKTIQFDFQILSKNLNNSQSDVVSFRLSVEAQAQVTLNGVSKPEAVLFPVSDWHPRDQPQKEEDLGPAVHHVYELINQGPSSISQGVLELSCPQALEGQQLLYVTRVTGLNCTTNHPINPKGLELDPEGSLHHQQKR
T4 sequence (P08648 895-1049 partner limits assumed): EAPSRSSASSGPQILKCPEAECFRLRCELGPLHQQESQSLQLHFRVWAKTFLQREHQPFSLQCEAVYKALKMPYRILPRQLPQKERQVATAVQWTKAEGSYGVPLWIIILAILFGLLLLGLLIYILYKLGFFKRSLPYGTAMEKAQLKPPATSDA
T4 sequence (P05556 21-798): as the sequence (P05556 21-798) above
Procedure: as §2, §3

αVβ3 = biological target: T5, αVβ3 (Homo sapiens, UniProt P05106+P06756); experiment: Solid phase integrin ligand binding assay; conditions: 1 mM Mn2+, 1 mM Ca2+, 1 mM Mg2+
T5 construct: purchased US Biological, Swampscott, Mass
T5 sequence (P06756 31-889 limits assumed, one chain of several): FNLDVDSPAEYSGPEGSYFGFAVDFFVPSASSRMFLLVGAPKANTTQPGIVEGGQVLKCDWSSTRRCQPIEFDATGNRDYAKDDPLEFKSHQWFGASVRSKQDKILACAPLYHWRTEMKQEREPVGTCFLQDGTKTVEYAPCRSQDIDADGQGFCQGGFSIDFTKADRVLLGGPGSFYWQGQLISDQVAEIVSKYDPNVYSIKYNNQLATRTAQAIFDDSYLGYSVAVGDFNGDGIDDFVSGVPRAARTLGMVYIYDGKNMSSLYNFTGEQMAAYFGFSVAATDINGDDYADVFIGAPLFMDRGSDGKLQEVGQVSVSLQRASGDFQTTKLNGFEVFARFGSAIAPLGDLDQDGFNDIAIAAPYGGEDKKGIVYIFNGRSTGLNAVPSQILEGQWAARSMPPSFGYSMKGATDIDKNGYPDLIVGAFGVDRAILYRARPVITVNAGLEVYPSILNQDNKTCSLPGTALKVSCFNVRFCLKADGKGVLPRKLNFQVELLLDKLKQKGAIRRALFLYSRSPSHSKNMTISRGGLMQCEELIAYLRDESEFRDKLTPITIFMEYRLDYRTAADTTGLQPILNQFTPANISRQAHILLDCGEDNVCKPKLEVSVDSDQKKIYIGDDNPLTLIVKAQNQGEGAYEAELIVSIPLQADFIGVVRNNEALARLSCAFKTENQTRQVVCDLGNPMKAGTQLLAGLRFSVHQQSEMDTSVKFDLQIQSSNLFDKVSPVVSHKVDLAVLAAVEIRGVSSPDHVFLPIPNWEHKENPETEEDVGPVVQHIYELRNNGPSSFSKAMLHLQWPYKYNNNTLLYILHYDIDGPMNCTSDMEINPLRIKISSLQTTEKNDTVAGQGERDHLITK
T5 sequence (P06756 891-1048 partner limits assumed, one chain of several): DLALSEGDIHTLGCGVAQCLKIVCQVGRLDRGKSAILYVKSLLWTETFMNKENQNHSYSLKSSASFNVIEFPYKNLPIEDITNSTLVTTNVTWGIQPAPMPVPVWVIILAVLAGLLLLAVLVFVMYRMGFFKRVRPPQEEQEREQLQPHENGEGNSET
Procedure: as §2, §3

Molecule: FC(F)(F)c1cccc(-c2noc(-c3cc(-c4ccccc4)c(C(F)(F)F)s3)n2)c1 [SEW2871, reference compound]
reversal of the inhibitory effect of rhAPC on neutrophil migration (human neutrophils [1]): did not reverse

Molecule: SFLLRNPNDKYEPF (Aritficial Sequence) [reference compound]
reversal of the inhibitory effect of rhAPC on neutrophil migration (human neutrophils [1]): did not reverse

Molecule: acetyl-c[(penicillamine)-O-methyltyrosine-ARGDN(tetrahydroisoquinoline-3-carboxylic acid)C]—NH2 [RGD peptide]
affinity to β3 integrins (β3 integrins): high affinity
7-day mortality (septic mice): no significant change
time of survival (septic mice): reproducibly prolonged
mortality [2]: 60%
affinity to β1 integrins (β1 integrins): high affinity

Molecule: rhPC: the zymogen protein C, not activated [reference compound]
random migration of neutrophils on FN induced by fMLP (human neutrophils [1]): failed to block
fMLP-induced adhesion of human neutrophils to immobilized FN (human neutrophils [3]): failed to block

FRET efficiency between EPCR-mCFP and β1-mYFP (hEPCR-mCFP and β1-mYFP): No obvious FRET change
B1: Gla-less APC: mutant form of APC that lacks the EPCR binding motif (Enzyme Research Lab.) (protein)
chain: SKHVDGDQCLVLPLEHPCASLCCGHGTCIDGIGSFSCDCRSGWEGRFCQREVSFLNCSLDNGGCTHYCLEEVGWRRCSCAPGYKLGDDLLQCHPAVKFPCGRPWKRMEKKRSHLLIDGKMTRRGDSPWQVVLLDSKKKLACGAVLIHPSWVLTAAHCMDESKKLLVRLGEYDLRRWEKWELDLDIKEVFVHPNYSKSTTDNDIALLHLAQPATLSQTIVPICLPDSGLAERELNQAGQETLVTGWGYHSSREKEAKRNRTFVLNFIKIPVVPHNECSEVMSNMVSENMLCAGILGDRQDACEGDSGGPMVASFHGTWFLVGLVSWGEGCGLLHNYGVYTKVSRYLDWIHGHIRDKEAPQKSWAP
fMLP-induced adhesion of human neutrophils to immobilized FN (human neutrophils [3]): inhibited adhesion to a slightly less, but similar, degree as the wild type protein

direct binding to soluble α3β1 (α3β1): significantly less
direct binding to soluble α5β1 (α5β1): significantly less
direct binding to soluble αVβ3 (αVβ3): significantly less
B2: RGE-APC: rhAPC mutant with the RGD sequence mutated to RGE (Glu in place of Asp-222) (protein)
chain 1: ANSFLEELRHSSLERECIEEICDFEEAKEIFQNVDDTLAFWSKHVDGDQCLVLPLEHPCASLCCGHGTCIDGIGSFSCDCRSGWEGRFCQREVSFLNCSLDNGGCTHYCLEEVGWRRCSCAPGYKLGDDLLQCHPAVKFPCGRPWKRMEKKRSHL
chain 2: LIDGKMTRRGESPWQVVLLDSKKKLACGAVLIHPSWVLTAAHCMDESKKLLVRLGEYDLRRWEKWELDLDIKEVFVHPNYSKSTTDNDIALLHLAQPATLSQTIVPICLPDSGLAERELNQAGQETLVTGWGYHSSREKEAKRNRTFVLNFIKIPVVPHNECSEVMSNMVSENMLCAGILGDRQDACEGDSGGPMVASFHGTWFLVGLVSWGEGCGLLHNYGVYTKVSRYLDWIHGHIRDKEAPQKSWAP
random migration of neutrophils on FN induced by fMLP (human neutrophils [1]): had no effect
